In ChEMBL document CHEMBL1817657, “Block of the hERG channel by bupivacaine: Electrophysiological and modeling insights towards stereochemical optimization” (Eur J Med Chem, 2011):
Structures can show the parent of a compound that is named as a salt.

Key:
Format in all cases: cell-based
[1] = target: Voltage-gated inwardly rectifying potassium channel KCNH2 (Homo sapiens, UniProt Q12809, F656A); experiment: Inhibition of human ERG F656A mutant channel expressed in HEK293 cells assessed as blockade of potassium tail current by whole-cell patch clamp technique
[2] = target: T1, Voltage-gated inwardly rectifying potassium channel KCNH2 (Homo sapiens, UniProt Q12809, Y652A); experiment: Inhibition of human ERG Y652A mutant channel expressed in HEK293 cells assessed as blockade of potassium tail current by whole-cell patch clamp technique
[3] = target: T2, Voltage-gated inwardly rectifying potassium channel KCNH2 (Homo sapiens, UniProt Q12809); experiment: Inhibition of wild-type human ERG channel expressed in HEK293 cells assessed as blockade of potassium tail current by whole-cell patch clamp technique
[4] = target: T1, Voltage-gated inwardly rectifying potassium channel KCNH2; experiment: Inhibition of human ERG Y652A mutant channel expressed in CHO cells by whole-cell patch clamp technique
[5] = target: Voltage-gated inwardly rectifying potassium channel KCNH2 (Homo sapiens, UniProt Q12809, V659A); experiment: Inhibition of human ERG V659A mutant channel expressed in HEK293 cells assessed decrease in blockade of potassium tail current at 1 mM by whole-cell patch clamp technique; settings: hek293, 1000 µM
HEK293 [6] = experiment: Ratio IC50 for human ERG Y652A mutant channel expressed in HEK293 cells to IC50 for wild-type human ERG channel expressed in HEK293 cells
[7] = target: T2, Voltage-gated inwardly rectifying potassium channel KCNH2; experiment: Inhibition of wild-type human ERG channel expressed in CHO cells by whole-cell patch clamp technique
HEK293 [8] = experiment: Ratio IC50 for human ERG F656A mutant channel expressed in HEK293 cells to IC50 for wild-type human ERG channel expressed in HEK293 cells

Row | SMILES | IC50 [1] | IC50 [2] | IC50 [3] | IC50 [4] | inhibition (INH) [5] | Ratio IC50 (HEK293 [6]) | IC50 [7] | Ratio IC50 (HEK293 [8])
1 | CCCCN1CCCC[C@@H]1C(=O)Nc1c(C)cccc1C | 758 µM | 276 µM | 84 µM | – | – | – | – | –
2 | CCCCN1CCCCC1C(=O)Nc1c(C)cccc1C.Cl (racemic) [BUPIVACAINE HYDROCHLORIDE] | 866 µM | 265 µM | 32 µM | 95 µM | Active | 10 | 22 µM | 30
3 | CCCCN1CCCC[C@H]1C(=O)Nc1c(C)cccc1C [LEVOBUPIVACAINE HYDROCHLORIDE] | 1010 µM | 278 µM | 13 µM | 83 µM | – | – | 13 µM | –
